Assay results from BigSolDB 2.1.

O=C(NNC(=S)Nc1ccc(Cl)cc1)c1ccncc1
solubility (mole fraction)
Settings | 298.15 K | 308.15 K | 318.15 K | 328.15 K | 338.15 K
in transcutol | 0.0423 | 0.0468 | 0.0514 | 0.0565 | 0.0607
in water | 5.17e-07 | 5.93e-07 | 7.05e-07 | 8.28e-07 | 9.75e-07
